The source of these data is patent US10723741B1, “DNA polymerase IIIC inhibitors and use thereof” (Acurx Pharmaceuticals, LLC, priority 2018, dated 2020).

Holding throughout (type): cell-based
In assay [1] the test system is Bacillus subtilis ATCC 6633. The experiment in a line: Broth microdilution MIC, B. subtilis ATCC 6633. The note with it: ATCC6633, broth microdilution, 37° C., 20 hours, read-out: MIC B. subtilis ATCC 6633. Summed up: (§1)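 Two-fold dilutions from 64 to 0.0625 μg/ml final, 1% DMSO, were inoculated at ~5.0×10^5 cfu/ml in the strain's test medium and kept 20 h at 37 °C in ambient atmosphere. Colonies were grown on MHA, with S. pneumoniae on blood agar under 5% CO2.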
(In general: In broth dilution the organism is exposed to a series of concentrations in liquid medium.)

In assay [2] the test system is Staphylococcus aureus NRS384 (MRSA). The experiment in a line: Broth microdilution MIC, S. aureus NRS384 (MRSA). Set-up: MIC NRS 384 (MRSA): unit not given here. The note with it: broth microdilution, 37° C., 20 hours; for MIC: Staphylococcus aureus. An outline of the steps: as §1
The subject of assay [3] is Enterococcus faecium ATCC 700221 (VRE). As to the kind of experiment: Broth microdilution MIC, E. faecium ATCC 700221 (VRE). The arrangement: MIC E. faecium ATCC 700221 (VRE): unit: ug/mL. The note with it: broth microdilution, 37° C., 20 hours; for MIC: Enterococcus faecium. An outline of the steps: as §1
For assay [4], the system named is Staphylococcus aureus ATCC 29213 (MSSA). The experiment in a line: Broth microdilution MIC, S. aureus ATCC 29213 (MSSA). Conditions: broth microdilution, 37° C., 20 hours, read-out: MIC S. aureus ATCC 29213 (MSSA). An outline of the steps: as §1
Assay [5] deals with Streptococcus pneumoniae ATCC 49619. As to the kind of experiment: Broth microdilution MIC, S. pneumoniae ATCC 49619. The note with it: ATCC49619, broth microdilution, 37° C., 20 hours, read-out: MIC S. pneumoniae ATCC 49619. An outline of the steps: as §1
Assay [6] concerns Escherichia coli ATCC 25922. The experiment in a line: Broth microdilution MIC, E. coli ATCC 25922 (MHIIB w & w/o 4 mM EDTA). Conditions: broth microdilution, 37° C., 20 hours; for MIC: Escherichia coli, ATCC25922, without EDTA, read-out: MIC E. coli ATCC 25922; for MIC E. coli ATCC 25922 + 4 mM EDTA: with 4 mM EDTA. Summed up: as §1
Assay [7] deals with Enterococcus faecalis ATCC 29212. The experiment in a line: Broth microdilution MIC, E. faecalis ATCC 29212. The note with it: ATCC29212, broth microdilution, 37° C., 20 hours, read-out: MIC E. faecalis ATCC 29212. An outline of the steps:
as §1

The mark [8] stands for this setting: read-out: MIC E. faecium ATCC 700221 (VRE).

Converted amounts (≈) assume the structure as drawn. Where two headings read alike, the source gives them in different places.

For `O=c1[nH]c(NCc2ccc(Cl)c(Cl)c2)nc2cnn(CC3COCCO3)c12` (stereo not drawn) [Compound 105, 1-((1,4-Dioxan-2-yl)methyl)-5-((3,4-dichlorobenzyl)amino)-1H-pyrazolo[4,3-d]pyrimidin-7(6H)-one], the MIC (as a rule, the least concentration at which growth counts as inhibited) in assay [1] is 1 µg/mL (≈ 2.44 µM); in assay [4] it was 4 µg/mL (≈ 9.75 µM); in assay [5], 4 µg/mL (≈ 9.75 µM); in assay [6], over 64 µg/mL; in assay [7], 8 µg/mL (≈ 19.5 µM). In addition, in assay [2], the “MIC NRS 384 (MRSA)” value was 4/2. The “MIC E. faecium ATCC 700221 (VRE)” value in assay [3] is on record as 4/2. Also, in assay [6], the “MIC E. coli ATCC 25922 + 4 mM EDTA” value was over 64 µg/mL.

Regarding `CC(=O)N1CCN(CCn2ncc3nc(NCc4ccc(Cl)c(Cl)c4)[nH]c(=O)c32)CC1.Cl` [Compound 64, 1-(2-(4-Acetylpiperazin-1-yl)ethyl)-5-((3,4-dichlorobenzyl)amino)-1H-pyrazolo[4,3-d]pyrimidin-7(6H)-one hydrochloride], the MIC in assay [1] was 2 µg/mL; in assay [2] (read-out: MIC NRS 384 (MRSA)), 8 µg/mL; in assay [3] (setting [8]), 2 µg/mL; in assay [4], 8 µg/mL; in assay [5] it was 4 µg/mL; in assay [6] it was over 64 µg/mL. The MIC in assay [7] turned out to be 4 µg/mL. Also, the “MIC E. coli ATCC 25922 + 4 mM EDTA” value in assay [6] is 64 µg/mL.

Turning to `Cn1nc(F)c2nc(NCc3ccc(Cl)c(Cl)c3)[nH]c(=O)c21` [Compound 53, 5-((3,4-dichlorobenzyl)amino)-3-fluoro-1-methyl-1H-pyrazolo[4,3-d]pyrimidin-7(6H)-one], the MIC in assay [1] is 0.5 µg/mL (≈ 1.46 µM); in assay [2] (read-out: MIC NRS 384 (MRSA)), 0.5 µg/mL (≈ 1.46 µM); in assay [2] (MHIIB, read-out: MIC against S. aureus NRS 384 (MRSA)), at most 1 µg/mL; in assay [3] (setting [8]), 0.5 µg/mL (≈ 1.46 µM); in assay [3] (MHIIB, read-out: MIC against E. faecium ATCC 700221 (VRE)), at most 1 µg/mL; in assay [4], 0.5 µg/mL (≈ 1.46 µM). Moreover, the MIC was 2 µg/mL (≈ 5.85 µM) in assay [5], over 64 µg/mL in assay [6] and 2 µg/mL (≈ 5.85 µM) in assay [7]. Also, the “MIC E. coli ATCC 25922 + 4 mM EDTA” value in assay [6] amounted to 64 µg/mL.

Regarding `COCC(COC)n1ncc2nc(NCc3ccc(Cl)c(Cl)c3)[nH]c(=O)c21` [Compound 106, 5-((3,4-Dichlorobenzyl)amino)-1-(1,3-dimethoxypropan-2-yl)-1H-pyrazolo[4,3-d]pyrimidin-7(6H)-one], the MIC is 32 µg/mL (≈ 77.6 µM) in assay [1]; 32 µg/mL (≈ 77.6 µM) in assay [2] (read-out: MIC NRS 384 (MRSA)); 32 µg/mL (≈ 77.6 µM) in assay [3] (setting [8]); 64 µg/mL (≈ 155 µM) in assay [4]; 32 µg/mL (≈ 77.6 µM) in assay [5]; over 64 µg/mL in assay [6]. Moreover, in assay [7], the MIC was over 64 µg/mL. Moreover, the “MIC E. coli ATCC 25922 + 4 mM EDTA” value in assay [6] was over 64 µg/mL.

With `O=C(O)COCCn1ncc2nc(NCc3ccc(Cl)c(Cl)c3)[nH]c(=O)c21` [Compound 283, 2-[2-[5-[(3,4-dichlorophenyl)methylamino]-7-oxo-6H-pyrazolo[4,3-d]pyrimidin-1-yl]ethoxy]acetic acid], the MIC in assay [1], in assay [2] (read-out: MIC NRS 384 (MRSA)), in assay [3] (setting [8]), in assay [4], in assay [5] and in assay [6] was over 64 µg/mL in each case. Further, the MIC in assay [7] was over 64 µg/mL. For the same compound, the “MIC E. coli ATCC 25922 + 4 mM EDTA” value in assay [6] is over 64 µg/mL.

As for `CC(C)(C)OC(=O)N1CCN(CCOCCn2ncc3nc(NCc4ccc(Cl)c(Cl)c4)[nH]c(=O)c32)CC1` [Compound 166, tert-butyl 4-[2-[2-[5-[(3,4-dichlorophenyl)methylamino]-7-oxo-6H-pyrazolo[4,3-d]pyrimidin-1-yl]ethoxy]ethyl]piperazine-1-carboxylate], the MIC in assay [1] is 4 µg/mL (≈ 7.06 µM); in assay [2] (read-out: MIC NRS 384 (MRSA)) it was over 64 µg/mL; in assay [3] (setting [8]) it was 8 µg/mL (≈ 14.1 µM); in assay [4], over 64 µg/mL; in assay [5], 16 µg/mL (≈ 28.2 µM); in assay [6], over 64 µg/mL. The MIC in assay [7] was over 64 µg/mL. Besides, the “MIC E. coli ATCC 25922 + 4 mM EDTA” value in assay [6] is over 64 µg/mL.

`Cl.Cl.O=c1[nH]c(NCc2ccc(Cl)c(Cl)c2)nc2cnn(C3CCN(Cc4ccccn4)CC3)c12` [Compound 244, 5-((3,4-Dichlorobenzyl)amino)-1-(1-(pyridin-2-ylmethyl)piperidin-4-yl)-1H-pyrazolo[4,3-d]pyrimidin-7(6H)-one dihydrochloride]: the MIC in assay [1] was 1 µg/mL; in assay [2] (read-out: MIC NRS 384 (MRSA)), 2 µg/mL; in assay [3] (setting [8]), 2 µg/mL; in assay [4], 2 µg/mL; in assay [5] it was 4 µg/mL; in assay [6], over 64 µg/mL. Besides, the MIC in assay [7] worked out at 4 µg/mL. Further, the “MIC E. coli ATCC 25922 + 4 mM EDTA” value in assay [6] came to 16 µg/mL.

As for `Cn1nc(CCO)c2nc(NCc3ccc(Cl)c(Cl)c3)[nH]c(=O)c21` [Compound 48, 5-((3,4-dichlorobenzyl)amino)-3-(2-hydroxyethyl)-1-methyl-1H-pyrazolo[4,3-d]pyrimidin-7(6H)-one], the MIC was 4 µg/mL (≈ 10.9 µM) in assay [1]; 4 µg/mL (≈ 10.9 µM) in assay [2] (read-out: MIC NRS 384 (MRSA)); 8 µg/mL (≈ 21.7 µM) in assay [3] (setting [8]); 8 µg/mL (≈ 21.7 µM) in assay [4]; 4 µg/mL (≈ 10.9 µM) in assay [5]; over 64 µg/mL in assay [6]. Moreover, the MIC in assay [7] amounted to 16 µg/mL (≈ 43.5 µM). Also, the “MIC E. coli ATCC 25922 + 4 mM EDTA” value in assay [6] was over 64 µg/mL.

Regarding `Cl.O=c1[nH]c(NCc2ccc(Cl)c(Cl)c2)nc2cnn(CCN3CCOCC3)c12` [Compound 57, 5-((3,4-dichlorobenzyl)amino)-1-(2-morpholinoethyl)-1H-pyrazolo[4,3-d]pyrimidin-7(6H)-one hydrochloride], the MIC in assay [1] was 1 µg/mL; in assay [2] (read-out: MIC NRS 384 (MRSA)), 2 µg/mL; in assay [3] (setting [8]) it was 1 µg/mL; in assay [4], 2 µg/mL; in assay [5], 2 µg/mL; in assay [6], over 64 µg/mL. For the same compound, in assay [7], the MIC was found to be 4 µg/mL. The “MIC E. coli ATCC 25922 + 4 mM EDTA” value in assay [6] was over 64 µg/mL.

As for `O=c1[nH]c(NCc2ccc(Cl)c(Cl)c2)nc2cnn(CCOC/C=N/O)c12` [Compound 191, (E)-2-(2-(5-((3,4-dichlorobenzyl)amino)-7-oxo-6,7-dihydro-1H-pyrazolo[4,3-d]pyrimidin-1-yl)ethoxy)acetaldehyde oxime], the MIC in assay [1] is 2 µg/mL (≈ 4.86 µM); in assay [2] (read-out: MIC NRS 384 (MRSA)), 8 µg/mL (≈ 19.5 µM); in assay [3] (setting [8]), 2 µg/mL (≈ 4.86 µM); in assay [4], 4 µg/mL (≈ 9.73 µM); in assay [5] it was 4 µg/mL (≈ 9.73 µM); in assay [6], over 64 µg/mL. For the same compound, the MIC in assay [7] is 8 µg/mL (≈ 19.5 µM). Moreover, the “MIC E. coli ATCC 25922 + 4 mM EDTA” value in assay [6] is over 64 µg/mL.

With `Cc1ccncc1C(=O)N1CCC(n2ncc3nc(NCc4ccc(Cl)c(Cl)c4)[nH]c(=O)c32)CC1.Cl` [Compound 267, 5-((3,4-Dichlorobenzyl)amino)-1-(1-(4-methylnicotinoyl)piperidin-4-yl)-1H-pyrazolo[4,3-d]pyrimidin-7(6H)-one hydrochloride], the MIC in assay [1] was 1 µg/mL; in assay [2] (read-out: MIC NRS 384 (MRSA)), 4 µg/mL; in assay [3] (setting [8]), 2 µg/mL; in assay [4], 4 µg/mL; in assay [5], 4 µg/mL; in assay [6] it was over 64 µg/mL. Also, in assay [7], the MIC was 4 µg/mL. In addition, the “MIC E. coli ATCC 25922 + 4 mM EDTA” value in assay [6] is over 64 µg/mL.

As to `Cl.Cl.O=c1[nH]c(NCc2ccc(Cl)c(Cl)c2)nc2cnn(C3CCN(c4ccncc4)C3)c12` (stereo not drawn) [Compound 180, 5-((3,4-Dichlorobenzyl)amino)-1-(1-(pyridin-4-yl)pyrrolidin-3-yl)-1H-pyrazolo[4,3-d]pyrimidin-7(6H)-one dihydrochloride], the MIC was determined as 2 µg/mL in assay [1]; 8 µg/mL in assay [4]; 4 µg/mL in assay [5]; 64 µg/mL in assay [6]; 8 µg/mL in assay [7]. Further, in assay [2], the “MIC NRS 384 (MRSA)” value was 4/4. Further, the “MIC E. faecium ATCC 700221 (VRE)” value in assay [3] was 4/4. Also, the “MIC E. coli ATCC 25922 + 4 mM EDTA” value in assay [6] worked out at 16 µg/mL.

In the case of `CC(C)(C)OC(=O)N1CCOC(Cn2ncc3nc(NCc4ccc(Cl)c(Cl)c4)[nH]c(=O)c32)C1` (stereo not drawn) [Compound 148, tert-butyl 2-((5-((3,4-dichlorobenzyl)amino)-7-oxo-6,7-dihydro-1H-pyrazolo[4,3-d]pyrimidin-1-yl)methyl)morpholine-4-carboxylate], the MIC is 2 µg/mL (≈ 3.93 µM) in assay [1]; 4 µg/mL (≈ 7.85 µM) in assay [2] (read-out: MIC NRS 384 (MRSA)); 4 µg/mL (≈ 7.85 µM) in assay [3] (setting [8]); 8 µg/mL (≈ 15.7 µM) in assay [4]; 16 µg/mL (≈ 31.4 µM) in assay [5]; over 64 µg/mL in assay [6]. Also, in assay [7], the MIC was found to be 16 µg/mL (≈ 31.4 µM). For the same compound, in assay [6], the “MIC E. coli ATCC 25922 + 4 mM EDTA” value is over 64 µg/mL.

Regarding `Cn1ncc2nc(NCc3cncs3)[nH]c(=O)c21` [Compound 20, 1-Methyl-5-((thiazol-5-ylmethyl)amino)-1H-pyrazolo[4,3-d]pyrimidin-7(6H)-one], the minimal inhibitory concentration (MIC) in assay [1], in assay [2] (read-out: MIC NRS 384 (MRSA)), in assay [3] (setting [8]), in assay [4], in assay [5] and in assay [6] was over 64 µg/mL throughout. Moreover, the MIC in assay [7] was over 64 µg/mL. In addition, the “MIC E. coli ATCC 25922 + 4 mM EDTA” value in assay [6] was over 64 µg/mL.
